Values of other authors, collected in publication PMC8066102, “Metabolic Profiles of New Unsymmetrical Bisacridine Antitumor Agents in Electrochemical and Enzymatic Noncellular Systems and in Tumor Cells” (Pharmaceuticals, 2021).

Set-up: method as in PMID 2810109, PMID 12920162
Details: after UGT2B7 glucuronidation; cited from earlier work

CN1CC[C@]23c4c5ccc(O)c4O[C@H]2[C@@H](O[C@@H]2O[C@H](C(=O)O)[C@@H](O)[C@H](O)[C@H]2O)C=C[C@H]3[C@H]1C5 [morphine-6-glucuronide]
analgesic activity relative to morphine: 650 fold
